Results: patent US6914045B2, “Glycopeptide antibiotics” (Wyeth Holdings Corporation, priority 2001, dated 2005)
≈ marks a conversion by molar mass, not a printed value.

Columns and labels:
Experiment in all cases: in vitro antibacterial evaluation, MIC by broth dilution
Type in all cases: cell-based
Streptococcus sp. = conditions: broth dilution, 18 hours at 35° C.
In short: (§1)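 Step 1: dilute antibiotic across 64-0.06 μg/mL in Muller-Hinton II […]. Step 2: inoculate at 5×10^5 CFU/mL.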

Escherichia coli = conditions: 18 hours at 35° C.
In short: as §1

Enterococcus sp. = conditions: broth dilution, 18 hours at 35° C.
In short: as §1

Staphylococcus sp. = conditions: broth dilution, 18 hours at 35° C.
In short: as §1

CC(c1ccccc1)C1NC(=O)CNC(=O)C(CO)NC(=O)C(C(O)C2CNC(=N)N2C2OC(CO)C(O)C(O)C2O)NC(=O)C(C(O)C2CNC(=N)N2)NC(=O)C(Cc2ccc(OC3OC(CO)C(OC4OC5COC(c6cccs6)OC5C(O)C4O)C(O)C3O)cc2)NC1=O (stereo not shown) [Example 132]
MIC Streptococcus agalactiae (GC 4564) (Streptococcus sp.; Streptococcus agalactiae (GC 4564)): 0.5 µg/mL (≈ 0.36 µM) | MIC Streptococcus pneumoniae (ATCC 6301) (Streptococcus sp.; Streptococcus pneumoniae (ATCC 6301)): 0.25 µg/mL (≈ 0.18 µM) | MIC Streptococcus pneumoniae (GC 1894) (Streptococcus sp.; Streptococcus pneumoniae (GC 1894)): 0.12 µg/mL (≈ 0.0864 µM) | MIC Streptococcus pneumoniae (GC 4565) (Streptococcus sp.; Streptococcus pneumoniae (GC 4565)): 0.25 µg/mL (≈ 0.18 µM) | MIC Streptococcus pyogenes (GC 4563) (Streptococcus sp.; Streptococcus pyogenes (GC 4563)): 0.5 µg/mL (≈ 0.36 µM) | MIC Streptococcus pneumoniae (ATCC 6301) (Streptococcus sp.; strain ATCC 6301): 0.25 µg/mL (≈ 0.18 µM) | MIC Streptococcus pneumoniae (GC 1894) (Streptococcus sp.; strain GC 1894): 0.12 µg/mL (≈ 0.0864 µM) | MIC Streptococcus pyogenes (GC 4563) (Streptococcus sp.; strain GC 4563): 0.5 µg/mL (≈ 0.36 µM) | MIC Streptococcus agalactiae (GC 4564) (Streptococcus sp.; strain GC 4564): 0.5 µg/mL (≈ 0.36 µM) | MIC Streptococcus pneumoniae (GC 4565) (Streptococcus sp.; strain GC 4565): 0.25 µg/mL (≈ 0.18 µM) | MIC Escherichia coli (ATCC 25922) (Escherichia coli; strain ATCC 25922): >64 µg/mL | MIC Escherichia coli (GC 4559) (Escherichia coli; strain GC 4559): 32 µg/mL (≈ 23 µM) | MIC Escherichia coli (GC 4560) (Escherichia coli; strain GC 4560): 1 µg/mL (≈ 0.72 µM) | MIC Enterococcus avium (GC 4558) (Enterococcus sp.; Enterococcus avium (GC 4558)): 16 µg/mL (≈ 11.5 µM) | MIC Enterococcus faecalis (ATCC 29212) (Enterococcus sp.; Enterococcus faecalis (ATCC 29212)): 8 µg/mL (≈ 5.76 µM) | MIC Enterococcus faecalis (GC 2242) (Enterococcus sp.; Enterococcus faecalis (GC 2242)): 8 µg/mL (≈ 5.76 µM) | MIC Enterococcus faecalis (GC 2691) (Enterococcus sp.; Enterococcus faecalis (GC 2691)): 8 µg/mL (≈ 5.76 µM) | MIC Enterococcus faecalis (GC 3059) (Enterococcus sp.; Enterococcus faecalis (GC 3059)): 16 µg/mL (≈ 11.5 µM) | MIC Enterococcus faecalis (GC 4552) (Enterococcus sp.; Enterococcus faecalis (GC 4552)): 8 µg/mL (≈ 5.76 µM) | MIC Enterococcus faecalis (GC 4553) (Enterococcus sp.; Enterococcus faecalis (GC 4553)): 16 µg/mL (≈ 11.5 µM) | MIC Enterococcus faecalis (GC 4554) (Enterococcus sp.; Enterococcus faecalis (GC 4554)): 8 µg/mL (≈ 5.76 µM) | MIC Enterococcus faecalis (GC 6189) (Enterococcus sp.; Enterococcus faecalis (GC 6189)): 8 µg/mL (≈ 5.76 µM) | MIC Enterococcus faecium (GC 2243) (Enterococcus sp.; Enterococcus faecium (GC 2243)): 8 µg/mL (≈ 5.76 µM) | MIC Enterococcus faecium (GC 4556) (Enterococcus sp.; Enterococcus faecium (GC 4556)): 8 µg/mL (≈ 5.76 µM) | MIC Enterococcus faecium (GC 4557) (Enterococcus sp.; Enterococcus faecium (GC 4557)): 4 µg/mL (≈ 2.88 µM) | MIC Enterococcus faecalis (ATCC 29212) (Enterococcus sp.; strain ATCC 29212): 8 µg/mL (≈ 5.76 µM) | MIC Enterococcus faecalis (GC 2242) (Enterococcus sp.; strain GC 2242): 8 µg/mL (≈ 5.76 µM) | MIC Enterococcus faecium (GC 2243) (Enterococcus sp.; strain GC 2243): 8 µg/mL (≈ 5.76 µM) | MIC Enterococcus faecalis (GC 2691) (Enterococcus sp.; strain GC 2691): 8 µg/mL (≈ 5.76 µM) | MIC Enterococcus faecalis (GC 3059) (Enterococcus sp.; strain GC 3059): 16 µg/mL (≈ 11.5 µM) | MIC Enterococcus faecalis (GC 4552) (Enterococcus sp.; strain GC 4552): 8 µg/mL (≈ 5.76 µM) | MIC Enterococcus faecalis (GC 4553) (Enterococcus sp.; strain GC 4553): 16 µg/mL (≈ 11.5 µM) | MIC Enterococcus faecalis (GC 4554) (Enterococcus sp.; strain GC 4554): 8 µg/mL (≈ 5.76 µM) | MIC Enterococcus faecium (GC 4556) (Enterococcus sp.; strain GC 4556): 8 µg/mL (≈ 5.76 µM) | MIC Enterococcus faecium (GC 4557) (Enterococcus sp.; strain GC 4557): 4 µg/mL (≈ 2.88 µM) | MIC Enterococcus avium (GC 4558) (Enterococcus sp.; strain GC 4558): 16 µg/mL (≈ 11.5 µM) | MIC Enterococcus faecalis (GC 6189) (Enterococcus sp.; strain GC 6189): 8 µg/mL (≈ 5.76 µM) | MIC Staphylococcus aureus (ATCC 29213) (Staphylococcus sp.): 4 µg/mL (≈ 2.88 µM) | MIC Staphylococcus aureus (GC 1131) (Staphylococcus sp.): 2 µg/mL (≈ 1.44 µM) | MIC Staphylococcus aureus (GC 3051) (Staphylococcus sp.): 2 µg/mL (≈ 1.44 µM) | MIC Staphylococcus aureus (GC 3053) (Staphylococcus sp.): 4 µg/mL (≈ 2.88 µM) | MIC Staphylococcus aureus (GC 4541) (Staphylococcus sp.): 2 µg/mL (≈ 1.44 µM) | MIC Staphylococcus aureus (GC 4542) (Staphylococcus sp.): 2 µg/mL (≈ 1.44 µM) | MIC Staphylococcus aureus (GC 4544) (Staphylococcus sp.): 4 µg/mL (≈ 2.88 µM) | MIC Staphylococcus aureus (GC 4545) (Staphylococcus sp.): 2 µg/mL (≈ 1.44 µM) | MIC Staphylococcus aureus (GC 1131) (Staphylococcus sp.; inoculum 5×10^5 CFU/mL, strain GC 1131): 2 µg/mL (≈ 1.44 µM) | MIC Staphylococcus aureus (ATCC 29213) (Staphylococcus sp.; strain ATCC 29213): 4 µg/mL (≈ 2.88 µM) | MIC Staphylococcus aureus (GC 3051) (Staphylococcus sp.; strain GC 3051): 2 µg/mL (≈ 1.44 µM) | MIC Staphylococcus aureus (GC 3053) (Staphylococcus sp.; strain GC 3053): 4 µg/mL (≈ 2.88 µM) | MIC Staphylococcus aureus (GC 4541) (Staphylococcus sp.; strain GC 4541): 2 µg/mL (≈ 1.44 µM) | MIC Staphylococcus aureus (GC 4542) (Staphylococcus sp.; strain GC 4542): 2 µg/mL (≈ 1.44 µM) | MIC Staphylococcus aureus-SMITH (GC 4543) (Staphylococcus sp.; strain GC 4543): 2 µg/mL (≈ 1.44 µM) | MIC Staphylococcus aureus (GC 4544) (Staphylococcus sp.; strain GC 4544): 4 µg/mL (≈ 2.88 µM) | MIC Staphylococcus aureus (GC 4545) (Staphylococcus sp.; strain GC 4545): 2 µg/mL (≈ 1.44 µM) | MIC Staphylococcus haemolyticus (GC 4546) (Staphylococcus sp.; strain GC 4546): 1 µg/mL (≈ 0.72 µM) | MIC Coagulase Negative Staphylococcus (GC 4547) (Staphylococcus sp.; strain GC 4547): 2 µg/mL (≈ 1.44 µM) | MIC Coagulase Negative Staphylococcus (GC 4548) (Staphylococcus sp.; strain GC 4548): 1 µg/mL (≈ 0.72 µM) | MIC Coagulase Negative Staphylococcus (GC 4549) (Staphylococcus sp.; strain GC 4549): 1 µg/mL (≈ 0.72 µM) | MIC Coagulase Negative Staphylococcus (GC 4551) (Staphylococcus sp.; strain GC 4551): 2 µg/mL (≈ 1.44 µM) | MIC Coagulase Negative Staphylococcus (GC 6257) (Staphylococcus sp.; strain GC 6257): 1 µg/mL (≈ 0.72 µM) | MIC Staphylococcus aureus-SMITH (GC 4543) (Staphylococcus sp.; strain SMITH GC 4543): 2 µg/mL (≈ 1.44 µM)
